From patent US10131639B2, “Formulations of 2-(tert-butylamino)-4-((1R,3R,4R)-3-hydroxy-4methylcyclohexylamino)-pyrimidine-5-carboxamide” (Signal Pharmaceuticals, LLC, priority 2014, dated 2018)

Columns and labels:
[1] = Solid state chemical stability under stress conditions (HPLC with UV detection); details: for Chemical stability (open vial, 2 weeks) / Chemical stability (open vial, 2 weeks): degradation: HPLC/UV; for % Remaining at 80° C. / % Remaining at 80° C./75% RH: solid state, open vial, 2 weeks, HPLC with UV detection
Protocol: Six vials were prepared for each salt. Two samples were stored in the refrigerator. The other four samples in open vials were stored under 4 stress conditions, respectively. […] One set of samples stored in the refrigerator were used to prepare the stock and standard solutions.

[2] = Solid state physical stability under stress conditions (XRPD); assay type: physicochemical; details: XRPD vs initial material
Protocol: A portion of the sample was loaded to a 4 mL clear glass vial. Four samples were prepared for each salt. The vials (open) were stored under 4 different stress conditions, respectively.

[3] = Hygroscopicity by dynamic vapor sorption (DVS); assay type: physicochemical; details: for Hygroscopicity (80% RH, 25° C., cycle 1 sorption): DVS water uptake, L-tartrate: hydrate, difference between 20% RH and 80% RH
Text: DVS: A portion of the sample was loaded into a quartz sample holder and tested using DVS-Advantage system in two continuous adsorption/desorption cycles. The settings are described as follows:
Adsorption/desorption cycle 1: 50 to 95 to 0% RH;
Adsorption/desorption cycle 2: 0 to 95 to 0% RH;

[4] = Solubility in water and SGF (24 hours, ambient temperature, HPLC/UV); assay type: physicochemical; details: for pH of the solubility sample in SGF / pH of the solubility sample in water: measured after 24 hours shaking; for Solubility in SGF (equiv. to free base): simulated gastric fluid without pepsin; for Solubility in SGF (equiv. to free base) / Solubility in water (equiv. to free base): ambient temperature, 24 hours
Protocol: Solubility in Water and SGF: A portion of the sample was weighed into a 2 mL clear HPLC vial. […] The sample was removed from the shaker and pH measurement was performed using a calibrated pH meter. Then a portion of the sample was filtered using […] Nylon-membraned centrifuge tube filter at 14000 RPM for 5 min. The filtrate was analyzed using HPLC/UV with appropriate dilution. The filtered solid residues were analyzed using XRPD.
For solubility in SGF, the samples were prepared and assayed in the same procedures as mentioned above.

[5] = Hygroscopicity by dynamic vapor sorption (DVS); assay type: physicochemical; details: 25° C., after pre-heating at 50° C. for 3 hours
[6] = 80° C./75% RH, listed as H2SO4 salt

Structure (SMILES)	Chemical stability (open vial, 2 weeks) ([1]; 80° C./75% RH)	Chemical stability (open vial, 2 weeks) ([1]; 80° C.)	% Remaining at 80° C. ([1]; 80° C.) [%]	% Remaining at 80° C./75% RH ([1]; 80° C./75% RH) [%]	Physical stability (open vial, 2 weeks) ([2]; 80° C./75% RH)	Physical stability (open vial, 2 weeks) ([2]; 80° C.)	Hygroscopicity (80% RH, 25° C., cycle 1 sorption) [3] [%]	hygroscopicity (sorption/desorption, in words) ([3]; DVS, 25° C.)	pH of the solubility sample in SGF [4]	pH of the solubility sample in water [4]	Solubility in SGF (equiv. to free base) [4] [µg/mL]	Solubility in water (equiv. to free base) [4] [µg/mL]	further results
C[C@@H]1CC[C@@H](Nc2nc(NC(C)(C)C)ncc2C(N)=O)C[C@H]1O.O=C(O)C[C@H](O)C(=O)O [L-malate]	not chemically stable	not chemically stable	87.7	92.9	form change	form change	5.60	hygroscopic	(pH 1.54)	(pH 4.07)	8922	4496	Chemical stability (open vial, 2 weeks): degradation ([1]; 80° C./75% RH): ~7% degradation; Chemical stability (open vial, 2 weeks): degradation ([1]; 80° C.): ~12% degradation; Physical stability (open vial, 2 weeks) ([2]; 80° C./75% RH, listed as L-malate salt): not physically stable; Physical stability (open vial, 2 weeks) ([2]; 80° C., listed as L-malate salt): not physically stable
C[C@@H]1CC[C@@H](Nc2nc(NC(C)(C)C)ncc2C(N)=O)C[C@H]1O.O=P(O)(O)O [Compound H3PO4]	no change	no change	101.1	99.9	no change	no change	0.48	not hygroscopic					Physical stability (open vial, 2 weeks) ([2]; 80° C./75% RH, listed as H3PO4 salt): physically stable; Physical stability (open vial, 2 weeks) ([2]; 80° C., listed as H3PO4 salt): physically stable
O=C(O)[C@H](O)[C@@H](O)C(=O)O [L-tartrate]	no change	no change	98.7	98.3	no change	no change	0.81						Physical stability (open vial, 2 weeks) ([2]; 80° C./75% RH, listed as L-tartrate salt): physically stable; Physical stability (open vial, 2 weeks) ([2]; 80° C., listed as L-tartrate salt): physically stable; hygroscopicity (sorption/desorption, in words) ([3]; DVS, 25° C., listed as L-tartrate salt): slightly hygroscopic; hygroscopicity (sorption/desorption, in words) ([3]; DVS, 25° C., listed as L-tartrate salt (hydrate)): not hygroscopic; Cycle 1 sorption at 20% RH [5]: 4.32%
CC1CCC(Nc2nc(NC(C)(C)C)ncc2C(N)=O)CC1O.Cl (stereo not shown) [HCl]	no change	no change	101.2	100.4	form change	no change	5.21	hygroscopic	(pH 1.19)	(pH 3.87)	6058	10761	Physical stability (open vial, 2 weeks) ([2]; 80° C./75% RH, listed as HCl salt): not stable; Physical stability (open vial, 2 weeks) ([2]; 80° C., listed as HCl salt): physically stable; water uptake at 40% RH, Cycle 2 sorption isotherm ([3]; DVS, 25° C.): 4.89%
CC(O)C(=O)O.CC1CCC(Nc2nc(NC(C)(C)C)ncc2C(N)=O)CC1O [L-lactate]	no change	no change	100.4	100.5	form change	form change	2.65	moderately hygroscopic					Physical stability (open vial, 2 weeks) ([2]; 80° C./75% RH, listed as L-lactate salt form 2): not physically stable; Physical stability (open vial, 2 weeks) ([2]; 80° C., listed as L-lactate salt form 2): not physically stable
C[C@@H]1CC[C@@H](Nc2nc(NC(C)(C)C)ncc2C(N)=O)C[C@H]1O.O=S(=O)(O)O [Compound H2SO4]	no change	no change	100.0	100.1	form change	no change	6.13	hygroscopic	(pH 1.03)	(pH 1.69)	3187	2647	Chemical stability (open vial, 2 weeks) [1, 6]: stable; Chemical stability (open vial, 2 weeks) ([1]; 80° C., listed as H2SO4 salt): stable; Physical stability (open vial, 2 weeks) [2, 6]: not stable; Physical stability (open vial, 2 weeks) ([2]; 80° C., listed as H2SO4 salt): physically stable
